Each structure is given as a SMILES string.

Chain of Phosphatidylinositol 4,5-bisphosphate 3-kinase catalytic subunit beta isoform (P42338 whole entry, canonical isoform): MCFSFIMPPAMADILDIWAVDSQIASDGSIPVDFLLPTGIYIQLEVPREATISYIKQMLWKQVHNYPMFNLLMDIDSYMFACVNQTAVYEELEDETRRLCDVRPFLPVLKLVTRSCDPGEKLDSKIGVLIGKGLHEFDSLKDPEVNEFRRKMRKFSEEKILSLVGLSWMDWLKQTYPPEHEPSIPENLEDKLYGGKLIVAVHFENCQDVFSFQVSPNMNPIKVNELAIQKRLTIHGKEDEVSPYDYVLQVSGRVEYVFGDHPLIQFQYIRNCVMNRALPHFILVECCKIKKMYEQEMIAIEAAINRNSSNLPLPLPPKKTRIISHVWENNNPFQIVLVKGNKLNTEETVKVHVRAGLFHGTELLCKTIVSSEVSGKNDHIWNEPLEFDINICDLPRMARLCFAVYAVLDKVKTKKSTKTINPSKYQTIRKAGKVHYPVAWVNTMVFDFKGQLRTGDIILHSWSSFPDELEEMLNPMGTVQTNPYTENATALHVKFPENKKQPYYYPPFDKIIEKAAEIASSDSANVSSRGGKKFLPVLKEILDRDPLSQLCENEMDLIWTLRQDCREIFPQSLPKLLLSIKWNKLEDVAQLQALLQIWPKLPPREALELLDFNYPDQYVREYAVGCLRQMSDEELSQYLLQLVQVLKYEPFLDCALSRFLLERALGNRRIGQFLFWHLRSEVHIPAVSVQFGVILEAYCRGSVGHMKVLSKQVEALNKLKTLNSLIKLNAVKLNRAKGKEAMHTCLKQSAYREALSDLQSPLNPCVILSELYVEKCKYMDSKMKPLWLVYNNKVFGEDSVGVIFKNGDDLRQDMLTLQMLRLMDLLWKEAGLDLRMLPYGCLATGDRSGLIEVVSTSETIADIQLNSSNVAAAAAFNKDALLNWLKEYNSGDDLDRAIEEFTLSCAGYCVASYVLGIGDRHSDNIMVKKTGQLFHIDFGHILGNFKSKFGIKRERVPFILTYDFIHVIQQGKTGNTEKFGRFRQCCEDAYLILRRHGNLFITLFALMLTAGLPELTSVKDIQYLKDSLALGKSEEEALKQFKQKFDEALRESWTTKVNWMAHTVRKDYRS
Chain of Phosphatidylinositol 4,5-bisphosphate 3-kinase catalytic subunit gamma isoform (P48736 whole entry, canonical isoform): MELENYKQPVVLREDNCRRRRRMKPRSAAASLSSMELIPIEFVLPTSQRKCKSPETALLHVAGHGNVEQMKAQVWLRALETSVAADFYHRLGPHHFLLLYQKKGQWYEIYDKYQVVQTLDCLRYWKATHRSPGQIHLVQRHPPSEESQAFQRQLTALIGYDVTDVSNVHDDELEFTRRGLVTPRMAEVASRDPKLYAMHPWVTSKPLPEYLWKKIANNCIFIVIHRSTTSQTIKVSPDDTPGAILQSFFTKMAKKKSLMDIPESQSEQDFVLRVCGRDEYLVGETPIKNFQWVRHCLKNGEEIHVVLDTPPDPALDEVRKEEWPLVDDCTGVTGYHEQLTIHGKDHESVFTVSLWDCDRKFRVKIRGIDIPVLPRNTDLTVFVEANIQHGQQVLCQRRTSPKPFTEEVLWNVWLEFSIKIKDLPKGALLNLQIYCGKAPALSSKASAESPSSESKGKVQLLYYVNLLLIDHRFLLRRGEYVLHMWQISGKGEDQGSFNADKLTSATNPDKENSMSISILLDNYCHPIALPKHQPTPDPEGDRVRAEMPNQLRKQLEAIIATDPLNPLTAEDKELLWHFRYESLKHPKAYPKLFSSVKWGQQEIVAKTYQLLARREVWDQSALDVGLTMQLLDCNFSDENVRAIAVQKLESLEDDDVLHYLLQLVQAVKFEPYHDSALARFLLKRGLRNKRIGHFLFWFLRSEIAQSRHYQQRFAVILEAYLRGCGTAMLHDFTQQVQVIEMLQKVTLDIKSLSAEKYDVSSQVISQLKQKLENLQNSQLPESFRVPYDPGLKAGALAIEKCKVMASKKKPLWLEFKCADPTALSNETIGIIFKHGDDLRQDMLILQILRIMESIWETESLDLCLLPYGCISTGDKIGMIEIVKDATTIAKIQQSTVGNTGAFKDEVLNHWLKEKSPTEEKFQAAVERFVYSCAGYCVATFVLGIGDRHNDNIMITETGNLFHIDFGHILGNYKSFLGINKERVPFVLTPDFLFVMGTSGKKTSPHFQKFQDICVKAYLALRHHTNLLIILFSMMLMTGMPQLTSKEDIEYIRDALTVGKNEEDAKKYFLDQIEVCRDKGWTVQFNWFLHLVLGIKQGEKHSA
Chain of Phosphatidylinositol 4,5-bisphosphate 3-kinase catalytic subunit alpha isoform (P42336 whole entry, canonical isoform): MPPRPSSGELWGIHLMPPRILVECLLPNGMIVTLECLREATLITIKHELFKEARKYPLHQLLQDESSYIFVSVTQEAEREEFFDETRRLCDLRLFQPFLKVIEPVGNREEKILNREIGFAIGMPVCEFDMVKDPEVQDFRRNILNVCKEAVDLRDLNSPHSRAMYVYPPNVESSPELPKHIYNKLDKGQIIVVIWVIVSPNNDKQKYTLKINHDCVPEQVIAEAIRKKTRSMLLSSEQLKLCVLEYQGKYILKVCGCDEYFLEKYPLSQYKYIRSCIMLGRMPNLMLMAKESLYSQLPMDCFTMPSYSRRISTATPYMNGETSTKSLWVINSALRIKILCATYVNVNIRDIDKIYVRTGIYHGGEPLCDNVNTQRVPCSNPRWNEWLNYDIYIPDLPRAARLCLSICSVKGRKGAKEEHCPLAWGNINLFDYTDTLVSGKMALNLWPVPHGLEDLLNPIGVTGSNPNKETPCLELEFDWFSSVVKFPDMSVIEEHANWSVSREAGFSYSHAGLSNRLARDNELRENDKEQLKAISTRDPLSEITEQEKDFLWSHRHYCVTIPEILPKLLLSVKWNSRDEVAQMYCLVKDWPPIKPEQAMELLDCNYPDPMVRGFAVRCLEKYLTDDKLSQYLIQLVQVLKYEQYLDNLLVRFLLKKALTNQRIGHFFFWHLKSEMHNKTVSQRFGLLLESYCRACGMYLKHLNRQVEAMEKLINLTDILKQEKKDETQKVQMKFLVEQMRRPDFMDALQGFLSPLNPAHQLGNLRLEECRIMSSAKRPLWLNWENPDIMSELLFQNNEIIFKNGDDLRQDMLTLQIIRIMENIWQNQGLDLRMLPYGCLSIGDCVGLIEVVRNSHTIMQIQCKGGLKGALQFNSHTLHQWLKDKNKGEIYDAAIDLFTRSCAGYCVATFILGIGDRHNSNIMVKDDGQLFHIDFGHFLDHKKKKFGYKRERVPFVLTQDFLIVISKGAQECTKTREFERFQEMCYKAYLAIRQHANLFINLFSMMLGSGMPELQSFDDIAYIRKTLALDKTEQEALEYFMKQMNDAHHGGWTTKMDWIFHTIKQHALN

One data set has as its target Phosphatidylinositol 4,5-bisphosphate 3-kinase catalytic subunit beta isoform (Homo sapiens, UniProt P42338). The data set is described as follows: Inhibition of PI3Kbeta (unknown origin) using biotin-PIP3 as substrate preincubated for 15 mins followed by substrate addition and measured after 60 mins by fluorescence polarization assay.
Conditions: not given
Broadly, the IC50 is the concentration needed to halve the response being measured. As to `CC(=O)N[C@H]1CCN(Cc2cc3nc(-c4cnc(N)nc4)nc(N4CCOCC4)c3s2)C1`, it took 3.98 µM to reach half-maximal inhibition (IC50).
As for `COCC(=O)N(C)C1CCN(Cc2cc3nc(-c4cccc5[nH]ncc45)nc(N4CCOCC4)c3s2)CC1`, the half-maximal inhibitory concentration (IC50) was 1.58 µM.
With `CNC(=O)NC1CCN(Cc2cc3nc(-c4cccc5[nH]ccc45)nc(N4CCOCC4)c3s2)CC1`, the IC50 is 2.51 µM.
The same measure, in the same setting: the figure for `COCC(=O)N(C)C1CCN(Cc2cc3nc(-c4cnc(N)nc4)nc(N4CCOCC4)c3s2)CC1` is 0.631 µM; for `CS(=O)(=O)NC1CCN(Cc2cc3nc(-c4cccc5[nH]ncc45)nc(N4CCOCC4)c3s2)CC1` it is 1.26 µM; for `CC(=O)NC1CCN(Cc2cc3nc(-c4cccc5[nH]ncc45)nc(N4CCOCC4)c3s2)C1` (racemic) it is 3.98 µM.
`CNC(=O)N(C)C1CCN(Cc2cc3nc(-c4cccc5[nH]ncc45)nc(N4CCOCC4)c3s2)C1` (racemic) showed an IC50 of 1.58 µM.
On the same count and under the same terms, the figure for `CC(=O)NC1CCN(Cc2cc3nc(-c4cnc(N)nc4)nc(N4CCOCC4)c3s2)C1` (racemic) is 0.501 µM.
On to `CNC(=O)NC1CCN(Cc2cc3nc(-c4cccc5[nH]ccc45)nc(N4CCOCC4)c3s2)C1` (racemic), for which the concentration for half-maximal inhibition (IC50) is 2 µM.
For `COCC(=O)NC1CCN(Cc2cc3nc(-c4cccc5[nH]ccc45)nc(N4CCOCC4)c3s2)C1` (racemic), the IC50 is 1 µM.
`COCC(=O)NC1CCN(Cc2cc3nc(-c4cnc(N)nc4)nc(N4CCOCC4)c3s2)C1` (racemic): the IC50 is 0.501 µM.
With `COCC(=O)NC1CCN(Cc2cc3nc(-c4cccc5[nH]ncc45)nc(N4CCOCC4)c3s2)C1` (racemic), it took 3.16 µM to reach half-maximal inhibition (IC50).
In turn, `CC(=O)NC1CCN(Cc2cc3nc(-c4cccc5[nH]ccc45)nc(N4CCOCC4)c3s2)C1` (racemic) gave an IC50 of 1.26 µM.

In a further data set the target is T1, Phosphatidylinositol 4,5-bisphosphate 3-kinase catalytic subunit delta isoform (Homo sapiens, UniProt O00329).
T1 sequence (O00329 whole entry): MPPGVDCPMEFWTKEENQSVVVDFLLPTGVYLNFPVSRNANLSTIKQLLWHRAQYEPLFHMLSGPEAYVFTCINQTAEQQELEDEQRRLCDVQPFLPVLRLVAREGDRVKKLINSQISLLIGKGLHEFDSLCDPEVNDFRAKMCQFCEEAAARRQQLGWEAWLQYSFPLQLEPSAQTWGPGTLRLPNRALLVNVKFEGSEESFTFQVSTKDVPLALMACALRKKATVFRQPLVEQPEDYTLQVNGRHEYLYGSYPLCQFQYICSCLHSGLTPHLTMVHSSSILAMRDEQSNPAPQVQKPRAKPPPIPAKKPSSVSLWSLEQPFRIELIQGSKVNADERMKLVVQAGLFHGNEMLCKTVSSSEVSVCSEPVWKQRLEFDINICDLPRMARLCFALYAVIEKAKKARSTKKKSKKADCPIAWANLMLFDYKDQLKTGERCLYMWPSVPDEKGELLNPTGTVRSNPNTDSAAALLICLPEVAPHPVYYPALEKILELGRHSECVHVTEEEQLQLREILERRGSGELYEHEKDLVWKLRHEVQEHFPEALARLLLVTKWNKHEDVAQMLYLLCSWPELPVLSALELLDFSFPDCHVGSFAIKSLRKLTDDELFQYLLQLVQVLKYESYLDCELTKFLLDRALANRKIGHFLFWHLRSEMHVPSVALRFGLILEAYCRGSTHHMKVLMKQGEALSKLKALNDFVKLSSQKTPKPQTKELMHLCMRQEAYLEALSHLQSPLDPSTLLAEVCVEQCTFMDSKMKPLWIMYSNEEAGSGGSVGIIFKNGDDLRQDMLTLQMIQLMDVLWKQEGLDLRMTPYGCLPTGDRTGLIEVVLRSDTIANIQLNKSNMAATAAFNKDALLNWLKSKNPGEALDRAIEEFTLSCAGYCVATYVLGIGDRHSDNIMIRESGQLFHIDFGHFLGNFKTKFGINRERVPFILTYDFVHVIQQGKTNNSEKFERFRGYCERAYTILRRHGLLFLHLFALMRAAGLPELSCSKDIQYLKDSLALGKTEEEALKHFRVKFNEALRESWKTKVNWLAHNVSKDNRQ
Conditions: not given
`CC(=O)NC1CCN(Cc2cc3nc(-c4cccc5[nH]ccc45)nc(N4CCOCC4)c3s2)CC1` had a concentration for half-maximal inhibition (IC50) of 0.0794 µM.
Still for that read-out and setting: with `CC(=O)N[C@H]1CCN(Cc2cc3nc(-c4cnc(N)nc4)nc(N4CCOCC4)c3s2)C1` the figure was 0.316 µM; with `COCC(=O)N(C)C1CCN(Cc2cc3nc(-c4cccc5[nH]ncc45)nc(N4CCOCC4)c3s2)CC1`, 0.0251 µM.
As to `CNC(=O)NC1CCN(Cc2cc3nc(-c4cccc5[nH]ccc45)nc(N4CCOCC4)c3s2)CC1`, half-maximal inhibition (IC50) required 0.158 µM.
On the same count and under the same terms, with `COCC(=O)N(C)C1CCN(Cc2cc3nc(-c4cnc(N)nc4)nc(N4CCOCC4)c3s2)CC1` the figure was 0.0158 µM; with `CS(=O)(=O)NC1CCN(Cc2cc3nc(-c4cccc5[nH]ncc45)nc(N4CCOCC4)c3s2)CC1`, 0.0398 µM; with `COCC(=O)NC1CCN(Cc2cc3nc(-c4cccc5[nH]ccc45)nc(N4CCOCC4)c3s2)CC1`, 0.0794 µM.
The same measure, in the same setting: with `CC(=O)NC1CCN(Cc2cc3nc(-c4cccc5[nH]ncc45)nc(N4CCOCC4)c3s2)C1` (racemic) the figure was 0.251 µM; with `CNC(=O)N(C)C1CCN(Cc2cc3nc(-c4cccc5[nH]ncc45)nc(N4CCOCC4)c3s2)C1` (racemic), 0.0631 µM.
`CC(=O)NC1CCN(Cc2cc3nc(-c4cnc(N)nc4)nc(N4CCOCC4)c3s2)C1` (racemic) showed a half-inhibitory concentration (IC50) of 0.0794 µM.
On the same count and under the same terms, the figure for `CNC(=O)NC1CCN(Cc2cc3nc(-c4cccc5[nH]ccc45)nc(N4CCOCC4)c3s2)C1` (racemic) is 0.126 µM.
The same measure, in the same setting: with `COCC(=O)NC1CCN(Cc2cc3nc(-c4cccc5[nH]ccc45)nc(N4CCOCC4)c3s2)C1` (racemic) the figure was 0.1 µM; with `COCC(=O)NC1CCN(Cc2cc3nc(-c4cnc(N)nc4)nc(N4CCOCC4)c3s2)C1` (racemic), 0.0794 µM.
The same measure, in the same setting: the figure for `COCC(=O)NC1CCN(Cc2cc3nc(-c4cccc5[nH]ncc45)nc(N4CCOCC4)c3s2)C1` (racemic) is 0.2 µM; for `CC(=O)NC1CCN(Cc2cc3nc(-c4cccc5[nH]ccc45)nc(N4CCOCC4)c3s2)C1` (racemic) it is 0.0631 µM.

Test system in another data set: not listed separately
The data set is described as follows: Lipophilicity, logD of compound at pH 7.4 by HPLC-MS analysis. Particulars: buffer.
Usually logD stands for the decadic logarithm of the distribution of all forms, ionised or not, between an organic phase and buffer at a given pH. A low value points to a more hydrophilic compound. On to `CC(=O)NC1CCN(Cc2cc3nc(-c4cccc5[nH]ccc45)nc(N4CCOCC4)c3s2)CC1`, for which the log distribution coefficient (logD) was 4.
As for `CC(=O)N[C@H]1CCN(Cc2cc3nc(-c4cnc(N)nc4)nc(N4CCOCC4)c3s2)C1`, the logD is 1.8.
Same read-out and setting: the figure for `COCC(=O)N(C)C1CCN(Cc2cc3nc(-c4cccc5[nH]ncc45)nc(N4CCOCC4)c3s2)CC1` is 3.8; for `CNC(=O)NC1CCN(Cc2cc3nc(-c4cccc5[nH]ccc45)nc(N4CCOCC4)c3s2)CC1` it is 3.6; for `COCC(=O)N(C)C1CCN(Cc2cc3nc(-c4cnc(N)nc4)nc(N4CCOCC4)c3s2)CC1` it is 2.7.
As to `CS(=O)(=O)NC1CCN(Cc2cc3nc(-c4cccc5[nH]ncc45)nc(N4CCOCC4)c3s2)CC1`, the pH-dependent lipophilicity (logD) came to 3.8.
`COCC(=O)NC1CCN(Cc2cc3nc(-c4cccc5[nH]ccc45)nc(N4CCOCC4)c3s2)CC1`: the log distribution coefficient (logD) came to 4.3.
Still for that read-out and setting: with `CC(=O)NC1CCN(Cc2cc3nc(-c4cccc5[nH]ncc45)nc(N4CCOCC4)c3s2)C1` (racemic) the figure was 3; with `CC(=O)NC1CCN(Cc2cc3nc(-c4cnc(N)nc4)nc(N4CCOCC4)c3s2)C1` (racemic), 1.9; with `CNC(=O)NC1CCN(Cc2cc3nc(-c4cccc5[nH]ccc45)nc(N4CCOCC4)c3s2)C1` (racemic), 3.4.
On the same count and under the same terms, the figure for `COCC(=O)NC1CCN(Cc2cc3nc(-c4cccc5[nH]ccc45)nc(N4CCOCC4)c3s2)C1` (racemic) is 4.1; for `COCC(=O)NC1CCN(Cc2cc3nc(-c4cnc(N)nc4)nc(N4CCOCC4)c3s2)C1` (racemic) it is 2.3; for `COCC(=O)NC1CCN(Cc2cc3nc(-c4cccc5[nH]ncc45)nc(N4CCOCC4)c3s2)C1` (racemic) it is 3.4.
The same measure, in the same setting: with `CC(=O)NC1CCN(Cc2cc3nc(-c4cccc5[nH]ccc45)nc(N4CCOCC4)c3s2)C1` (racemic) the figure was 3.7.

A further data set has as its target Phosphatidylinositol 4,5-bisphosphate 3-kinase catalytic subunit alpha isoform (Homo sapiens, UniProt P42336).
Conditions: not given
Consider `CC(=O)NC1CCN(Cc2cc3nc(-c4cccc5[nH]ccc45)nc(N4CCOCC4)c3s2)CC1`, for which the IC50 is 3.16 µM.
On the same count and under the same terms, the figure for `CC(=O)N[C@H]1CCN(Cc2cc3nc(-c4cnc(N)nc4)nc(N4CCOCC4)c3s2)C1` is 0.2 µM; for `COCC(=O)N(C)C1CCN(Cc2cc3nc(-c4cccc5[nH]ncc45)nc(N4CCOCC4)c3s2)CC1` it is 0.501 µM.
The compound `CNC(=O)NC1CCN(Cc2cc3nc(-c4cccc5[nH]ccc45)nc(N4CCOCC4)c3s2)CC1` had an IC50 of 3.98 µM.
The compound `COCC(=O)N(C)C1CCN(Cc2cc3nc(-c4cnc(N)nc4)nc(N4CCOCC4)c3s2)CC1` gave a half-inhibitory concentration (IC50) of 0.126 µM.
Compound `CS(=O)(=O)NC1CCN(Cc2cc3nc(-c4cccc5[nH]ncc45)nc(N4CCOCC4)c3s2)CC1` had a 50% inhibitory concentration (IC50) of 0.126 µM.
Same read-out and setting: with `CC(=O)NC1CCN(Cc2cc3nc(-c4cccc5[nH]ncc45)nc(N4CCOCC4)c3s2)C1` (racemic) the figure was 0.501 µM; with `CNC(=O)N(C)C1CCN(Cc2cc3nc(-c4cccc5[nH]ncc45)nc(N4CCOCC4)c3s2)C1` (racemic), 0.794 µM.
`CC(=O)NC1CCN(Cc2cc3nc(-c4cnc(N)nc4)nc(N4CCOCC4)c3s2)C1` (racemic): the midpoint of inhibition, the IC50, lay at 0.0316 µM.
In the case of `CNC(=O)NC1CCN(Cc2cc3nc(-c4cccc5[nH]ccc45)nc(N4CCOCC4)c3s2)C1` (racemic), the midpoint of inhibition, the IC50, lay at 3.16 µM.
Still for that read-out and setting: the figure for `COCC(=O)NC1CCN(Cc2cc3nc(-c4cccc5[nH]ccc45)nc(N4CCOCC4)c3s2)C1` (racemic) is 1.58 µM; for `COCC(=O)NC1CCN(Cc2cc3nc(-c4cnc(N)nc4)nc(N4CCOCC4)c3s2)C1` (racemic) it is 0.0398 µM.
As to `COCC(=O)NC1CCN(Cc2cc3nc(-c4cccc5[nH]ncc45)nc(N4CCOCC4)c3s2)C1` (racemic), the IC50 was 0.316 µM.
For the compound `CC(=O)NC1CCN(Cc2cc3nc(-c4cccc5[nH]ccc45)nc(N4CCOCC4)c3s2)C1` (racemic), the IC50 was 3.16 µM.

Another data set addresses Phosphatidylinositol 4,5-bisphosphate 3-kinase catalytic subunit gamma isoform (Homo sapiens, UniProt P48736).
Conditions: not given
For the compound `CC(=O)N[C@H]1CCN(Cc2cc3nc(-c4cnc(N)nc4)nc(N4CCOCC4)c3s2)C1`, it took 0.251 µM to reach half-maximal inhibition (IC50).
Still for that read-out and setting: with `COCC(=O)N(C)C1CCN(Cc2cc3nc(-c4cnc(N)nc4)nc(N4CCOCC4)c3s2)CC1` the figure was 0.126 µM; with `CS(=O)(=O)NC1CCN(Cc2cc3nc(-c4cccc5[nH]ncc45)nc(N4CCOCC4)c3s2)CC1`, 0.794 µM; with `CC(=O)NC1CCN(Cc2cc3nc(-c4cccc5[nH]ncc45)nc(N4CCOCC4)c3s2)C1` (racemic), 1.26 µM.
Same read-out and setting: the figure for `CNC(=O)N(C)C1CCN(Cc2cc3nc(-c4cccc5[nH]ncc45)nc(N4CCOCC4)c3s2)C1` (racemic) is 1.58 µM.
On the same count and under the same terms, the figure for `CC(=O)NC1CCN(Cc2cc3nc(-c4cnc(N)nc4)nc(N4CCOCC4)c3s2)C1` (racemic) is 0.0794 µM; for `CNC(=O)NC1CCN(Cc2cc3nc(-c4cccc5[nH]ccc45)nc(N4CCOCC4)c3s2)C1` (racemic) it is 3.98 µM; for `COCC(=O)NC1CCN(Cc2cc3nc(-c4cccc5[nH]ccc45)nc(N4CCOCC4)c3s2)C1` (racemic) it is 2.51 µM.
In turn, `COCC(=O)NC1CCN(Cc2cc3nc(-c4cnc(N)nc4)nc(N4CCOCC4)c3s2)C1` (racemic) had a 50% inhibitory concentration (IC50) of 0.0501 µM.
Compound `COCC(=O)NC1CCN(Cc2cc3nc(-c4cccc5[nH]ncc45)nc(N4CCOCC4)c3s2)C1` (racemic) showed an IC50 of 0.794 µM.
On the same count and under the same terms, with `CC(=O)NC1CCN(Cc2cc3nc(-c4cccc5[nH]ccc45)nc(N4CCOCC4)c3s2)C1` (racemic) the figure was 2 µM.

Values taken from ChEMBL document CHEMBL4414631 (J Med Chem, 2019).
